Structures are written as SMILES. Converted amounts (≈) assume the structure as drawn. Where only a bound is given, the exact number is not on record here.

The conditions of the data set: buffer; pH 7.4; 200.0 µM.
A word on the solubility (kinetic): it is solubility judged after dilution from a stock solution rather than from solid. The molecule `CCN1CCN(c2ccc(N)c(C)c2)CC1` had a kinetic solubility of 28.7 µg/mL (≈ 131 µM).

Consider `COC(=O)c1ccc(CNC(=O)COC(=O)/C=C/c2ccc(O)c(OC)c2)cc1`, for which the kinetic solubility came to 13.4 µg/mL (≈ 33.6 µM). This solubility kinetic is about 2.1-fold lower than that of the molecule before.

As for `FC(F)(F)c1ccc(CSc2ccccn2)cc1`, the solubility (kinetic) was 1.2 µg/mL (≈ 4.46 µM). Compared with the last molecule, the solubility kinetic is about 11-fold lower.

`O=C1N(c2ccccc2)C(=Nc2ccccc2)SC12CC2`: the solubility (kinetic) is 41.5 µg/mL (≈ 141 µM).

In the case of `Cc1ccccc1C(C)NS(=O)(=O)c1ccc2c(c1)OCCO2` (stereo not given), the solubility (kinetic) is above 50 µg/mL.

`COc1ccc2cc(Br)ccc2c1CC(=O)N1CCCC1` showed a kinetic solubility of 3.2 µg/mL (≈ 9.19 µM).

`Cc1ccc(NC(=O)Nc2cccc3ccccc23)cc1` had a solubility (kinetic) below 0.3 µg/mL.

Molecule `O=[N+]([O-])c1cnc(Nc2ccccc2)nc1Nc1ccccc1` yielded a kinetic solubility of 0.2 µg/mL (≈ 0.651 µM).

`O=C(CSc1ncccn1)N1CCCC1` displayed a kinetic solubility above 33.5 µg/mL.

The molecule `Cc1c(Cl)ccc(S(=O)(=O)NCCN2CCOCC2)c1Cl` yielded a solubility (kinetic) above 53 µg/mL.

With `O=C(O)/C=C/C(=O)Nc1ccc(S(=O)(=O)Nc2nccs2)cc1`, the kinetic solubility is above 53 µg/mL.

With `Cc1c(C(=O)Nc2ccc3c(c2)OCCO3)cnn1C`, the kinetic solubility is above 41 µg/mL.

For `Cc1ccc(C(=O)COC(=O)CCNS(=O)(=O)c2ccccc2F)cc1`, the kinetic solubility is above 56.9 µg/mL.

Take `CCn1c(SC)nc2cc(S(=O)(=O)N3CCCCC3)ccc21`: the solubility (kinetic) was 43.6 µg/mL (≈ 128 µM).

In the case of `COc1ccc(C(=O)Nc2ccc(N3CCCC3)cc2)cc1Br`, the kinetic solubility was below 0.4 µg/mL.

On to `CN(CCOc1ccc(Cl)cc1)C(=O)C1=CC=CN2CCS(=O)(=O)N=C12`, for which the kinetic solubility is above 59.4 µg/mL.

For `CCCCC(Sc1nc(C)c(Cc2ccccc2)c(=O)[nH]1)C(=O)O` (stereo not given), the solubility (kinetic) was above 52 µg/mL.

As to `CCC(C(=O)Nc1nc(C)c(C)s1)c1ccccc1` (stereo not given), the solubility (kinetic) is 38.3 µg/mL (≈ 140 µM).

Take `CCOCCCNC(=O)c1cc2c(=O)n3ccccc3nc2s1`: the solubility (kinetic) worked out at 46.4 µg/mL (≈ 140 µM).

Take `COc1cccc(CN2CCc3[nH]c(=S)[nH]c(=O)c3C2)c1`: the solubility (kinetic) was above 45.5 µg/mL.

In turn, `O=C(CNC(=O)c1ccc(Br)cc1)Nc1ccc2c(c1)CCC2` returned a kinetic solubility of 2.5 µg/mL (≈ 6.7 µM).

`O=C(CCCc1cccs1)NCCc1c[nH]c2ccccc12` had a solubility (kinetic) of 44.9 µg/mL (≈ 144 µM).

`O=C(NC(=S)Nc1cc([N+](=O)[O-])ccc1O)c1cccnc1` showed a kinetic solubility of 13.5 µg/mL (≈ 42.4 µM).

`Cc1ccc(O)c(Nc2ncnc3ccccc23)c1.Cl` registered a solubility (kinetic) of 4.5 µg/mL.

The molecule `c1ccc(CNc2nc(-c3ccccn3)nc3ccccc23)cc1` returned a kinetic solubility of 29.1 µg/mL (≈ 93.2 µM). This solubility kinetic is about 6.5-fold higher than that of the molecule before.

In turn, `Cc1onc(-c2ccccc2)c1C(=O)/C=C/N(C)C` showed a solubility (kinetic) of 36.4 µg/mL (≈ 142 µM).

Regarding `C=CCON1C(=O)C(=O)N(OCC=C)[C@H]2CCCC[C@H]21`, the kinetic solubility was above 42 µg/mL.

Molecule `COc1ccc(C(C)NC(=O)Cc2cccs2)cc1` (stereo not given) showed a kinetic solubility of 37.1 µg/mL (≈ 135 µM).

Regarding `O=C(NCCCO)/C(=C\c1ccco1)NC(=O)c1ccco1`, the solubility (kinetic) is above 45.6 µg/mL.

As to `O=C(Nc1ccc(OC(F)(F)F)cc1)c1ccc2c(c1)no[n+]2[O-]`, the solubility (kinetic) came out at 1.1 µg/mL (≈ 3.24 µM).

Molecule `Cc1cc(C)n2nc(SCc3ccccc3C(=O)O)nc2n1` yielded a solubility (kinetic) above 47.2 µg/mL.

Turning to `CN(C)c1ccc(C(=O)NCC(c2cccs2)N2CCOCC2)cc1` (stereo not given), the solubility (kinetic) was determined as 49.3 µg/mL (≈ 137 µM).

For the molecule `CCOC(=O)CC(NC(=O)c1ccccc1F)c1ccc(C)cc1` (stereo not given), the kinetic solubility stood at 34.5 µg/mL (≈ 105 µM).

`COc1ccc(CC(CC(=O)O)C(=O)NCc2ccccc2)cc1` (stereo not given) displayed a solubility (kinetic) of 48.6 µg/mL (≈ 148 µM).

`COc1ccc2c(c1)[nH]c1c(=O)n(CCN3CCOCC3)cnc12` showed a kinetic solubility of 47.6 µg/mL (≈ 145 µM).

Turning to `COc1ccc(Nc2nc(N)c(C(=O)c3ccc(OC)cc3)s2)cc1`, the kinetic solubility is 1.4 µg/mL (≈ 3.94 µM).

Molecule `S=C(NCc1ccncc1)Nc1ccc(Br)cc1` had a solubility (kinetic) above 48.3 µg/mL.

The molecule `Brc1cccc(C=Nc2cccc3ncccc23)c1` displayed a kinetic solubility of 12.2 µg/mL (≈ 39.2 µM).

The molecule `O=C(c1ccccc1)N1CCN(C(=O)c2ccc3c(c2)OCO3)CC1` registered a solubility (kinetic) above 50.8 µg/mL.

Regarding `Cn1ccsc1=NC(=O)c1ccc(S(C)(=O)=O)cc1`, the solubility (kinetic) was above 44.5 µg/mL.

Consider `COc1ccc(OC)c(NC(=O)CCOc2cccc(C)c2)c1`, for which the kinetic solubility came out at 23 µg/mL (≈ 72.9 µM).

The molecule `Cc1ccc(C)c(N2CCN(C3CCCC(C)C3)CC2)c1` (stereo not given) yielded a solubility (kinetic) of 23.3 µg/mL (≈ 81.3 µM).

In turn, `Cc1ccc(/C=C(\C#N)C(=O)NC(C)C)o1` displayed a kinetic solubility above 32.7 µg/mL.

As for `COC(=O)CCC(=O)NNC(=O)Cc1ccccc1`, the solubility (kinetic) was above 39.6 µg/mL.

Molecule `O=C1C[C@H](NC(=O)OCc2ccccc2)CO1` displayed a kinetic solubility above 35.3 µg/mL.

Take `COc1ccc([N+](=O)[O-])cc1C(=O)C(=O)c1ccccc1`: the solubility (kinetic) is below 0.6 µg/mL.

`CCOc1c(N2CCOCC2)c(=O)c1=O`: the kinetic solubility is above 31.7 µg/mL.

With `C=CCNc1cc(C)oc(=O)c1C(=O)CC`, the solubility (kinetic) was above 33.2 µg/mL.

As to `O=C(c1ccccc1NS(=O)(=O)c1ccc(F)cc1F)N1CCCCC1`, the kinetic solubility was above 57.1 µg/mL.

`O=C(O)Cc1csc(-c2ccc(F)cc2)n1` came in with a kinetic solubility of 32.2 µg/mL (≈ 136 µM).

`O=C(Nc1cnccn1)c1ccc(Cl)cc1` yielded a kinetic solubility of 34.7 µg/mL (≈ 149 µM).

`Fc1ccc(CNCc2ccco2)cc1` came in with a kinetic solubility of 11.8 µg/mL (≈ 57.5 µM).

`CCc1nc(NCCO)c(C#N)c2c1CSC(C)(C)C2` registered a kinetic solubility of 41.2 µg/mL (≈ 141 µM). This solubility kinetic lies about 3.5-fold higher than the previous one.

`Cc1cccc(C(=O)OCC(=O)NC2CCCCCCC2)c1`: the solubility (kinetic) was 21.6 µg/mL (≈ 71.2 µM).

Regarding `O=C(CN1C(=O)c2ccccc2S1(=O)=O)Nc1cccc(S(=O)(=O)N2CCCCC2)c1`, the solubility (kinetic) came to 34.4 µg/mL (≈ 74.2 µM).

For the molecule `Cc1cc(C)nc(NC(=O)Cc2ccc(Br)cc2)n1`, the kinetic solubility was above 48 µg/mL.

Regarding `COc1ccc(C(=O)Cn2c(=O)oc3ccc(C)cc32)cc1`, the solubility (kinetic) was below 0.6 µg/mL.

As to `Cc1ncc([N+](=O)[O-])n1CCN1C(=O)c2ccccc2C1=O`, the solubility (kinetic) worked out at 44.3 µg/mL (≈ 148 µM).

For `COC(=O)c1ccc(-c2ncc[nH]2)cc1`, the kinetic solubility is above 30.3 µg/mL.

`Cc1cc(C(=O)NC2Cc3ccccc3C2)c(C)o1` registered a solubility (kinetic) above 38.3 µg/mL.

Consider `N#C/C(=C/c1ccc(-c2ccccc2[N+](=O)[O-])o1)C(N)=O`, for which the kinetic solubility stood at 1.7 µg/mL (≈ 6 µM).

`COCCCNc1oc(/C=C/c2ccccc2)nc1C#N` showed a kinetic solubility of 3.7 µg/mL (≈ 13.1 µM).

`CCOC(=O)CSc1nc(-c2ccccc2)ns1` returned a kinetic solubility of 6.3 µg/mL (≈ 22.5 µM). This solubility kinetic is about 1.7-fold higher than that of the molecule before.

The molecule `COCCCNc1nc(N)c([N+](=O)[O-])c(Nc2ccccc2OC)n1` yielded a solubility (kinetic) of 1 µg/mL (≈ 2.87 µM).

`CCOC(=O)C1=C(C)NC(=O)NC1/C=C/c1ccccc1OC` (stereo not given) registered a solubility (kinetic) of 2.6 µg/mL (≈ 8.22 µM).

In the case of `O=C(Nc1ccc(S(=O)(=O)N2CCOCC2)cc1)C1CC1`, the solubility (kinetic) is above 46.6 µg/mL.

`COc1ccsc1NC(=O)OCc1ccc(Cl)cc1`: the kinetic solubility was 19.3 µg/mL (≈ 64.8 µM).

`C=C(C)COc1ccc(-c2ncncc2-c2ccc(Cl)cc2)c(O)c1`: the kinetic solubility is below 0.4 µg/mL.

Molecule `Cc1cc(C)c(OCCCON2C(=O)CCC2=O)c(Br)c1` had a kinetic solubility above 53.4 µg/mL.

Consider `CC(C)(C)C(=O)Nc1sc(-c2ccccc2)cc1C(=O)O`, for which the kinetic solubility was above 45.5 µg/mL.

`O=C(Nc1ccc2c(c1)OCO2)C1CC(c2ccccc2O)=NO1` (stereo not given) displayed a solubility (kinetic) of 1.4 µg/mL (≈ 4.29 µM).

`COc1cccc(CC(CC(=O)O)C(=O)Nc2cc(C)ccc2C)c1` (stereo not given) registered a solubility (kinetic) of 35.7 µg/mL (≈ 105 µM).

Molecule `CN(CC(=O)Nc1ccccc1Cl)CC(=O)Nc1cccc2ccccc12` came in with a solubility (kinetic) of 45.3 µg/mL (≈ 119 µM).

`O=C(CSCc1ccc(Br)cc1)NC1CC1`: the solubility (kinetic) turned out to be 38.7 µg/mL (≈ 129 µM).

For the molecule `O=C(NCCCNC(=O)c1ccco1)c1ccc(Cl)cc1`, the solubility (kinetic) was above 46 µg/mL.

(Values after PubChem BioAssay AID1996.)
